In brackets after ≈: the same amount, converted by molar mass. Like-named read-outs stand apart in the source and are kept apart here.
Experiment: Compound solubility determination in FaSSIF and FeSSIF
Assay type: physicochemical
Settings: thermodynamic from solid
Procedure: Compound Solubility Determination
An amount of 3 mg solid compound with LC-MS purity ≧95% was required. This amount was split between 3 different glass vials (1.8 ml volume each), placing 1 mg compound into each one.
Organic solvents of HPLC grade were used. Ultra pure water (Milli-Q grade) was used. Buffers were prepared with ultra pure water and filtered using 0.45μ nylon filters. The compositions of each solvent employed in this assay are described below (part III).
2. Determination of Equilibrium Solubility (Assuming Chemical Stability in the Desired Solvent is Not a Problem).
For each of the three vial samples prepared as described above, in which the amount of compound was totally dissolved, the following procedure was subsequently carried out: • a) A small amount (approx. 0.1 mg) of additional solid compound was added to the vial to maintain an excess of the compound in the mixture in the form of undissolved solid. • b) The samples were magnetically stirred for 24 hr. If required, additional solid compound (0.1 mg) was added to maintain excess of it and then the samples were stirred again. • c) Then the samples were filtered (Millipore Milex filters nylon 0.2 um) and three aliquots were taken (one from each of the three vials) and analysed by LC-MS. • d) The pH of the final solution in each sample was measured with a pH-meter (WTW pH330i and a pH-electrode Sentix 41). 3. LC-MS Assay for Analytical Quantification
All filtered aliquots were analysed by LC-MS. The analysis was carried out with a Luna 5 μC18(2) column 4.6×150 mm, using a HP1100HPLC instrument interfaced with a Waters ZMD-2000 MS spectrometer. The concentration of the final sample as prepared above was calculated from that of a reference calibration curve obtained from serial dilutions of a 2 mM solution of the compound under investigation in DMSO (Aldrich cat. ref.: 27685-5) stock solution.
The analysis of all LC-MS data was performed with MassLynx 3.4 software. Statistical and graphic analysis of data was performed using Microsoft Excel. The concentration (μM) and solubility (μg/ml) for each compound was calculated using the peak areas from the sample and those from the calibration curve.
• A) FaSSIF is a solvent which simulates the Fasted State of the Intestinal Fluid. (FaSSIF: Fasted State Simulated Intestinal Fluid).
FaSSIF Preparation Procedure. 1. Preparation of 1 L of pH 6.8 Buffer Solution • 1.a. 3.947 g potassium phosphate and 16.401 g potassium chloride were dissolved in approx. 900 ml of water. • 1.b. The pH was adjusted to 6.8 by slow addition of 0.1 N sodium hydroxide (Scharlau SO 0441010C) under magnetic stirring. • 1.c The mixture was diluted to a volume of 1000 ml with water. 2. Preparation of 100 ml of FaSSIF • 2.a. 269 mg NaTaurochol. (Aldrich T-4009) was dissolved in approx. 80 ml of pH 6.8 buffer. • 2.b. 114 mg lecithin (Sigma P-7318) was dissolved in this NaTaurochol/buffer solution (this was carried out with a nitrogen filled glove bag). • 2.c. The resulting mixture was diluted to a volume of 100 ml with further pH 6.8 buffer • 2.d. The final solution was covered with a layer of nitrogen or alternative inert gas. The bottle was sealed with parafilm and stored at 4° C. • B) FeSSIF is a solvent which simulates the Fed State of the Intestinal Fluid. (FeSSIF: Fed State Simulated Intestinal Fluid).
FeSSIF Preparation Procedure. 1. Prepare 1 L of pH 5 Buffer Solution • 1.a. 15.2 g potassium chloride and 8.25 ml glacial acetic acid were dissolved in approx. 900 ml of water. • 1.b. The pH was adjusted to 5 by slow addition of NaOH 0.1N (Scharlau SO 0441010C) under magnetic stirring. • 1.c The mixture was diluted to a volume of 1000 ml with water. 2. Preparation of 100 mL of FeSSIF • 2.a. 806.5 mg NaTaurochol (Aldrich T-4009) was dissolved in 80 ml of pH 5 buffer. • 2.b. 288 mg lecithin (Sigma P-7318) was dissolved in this NaTaurochol/buffer solution (carried out with a nitrogen filled glove bag). • 2.c. […]

[1] = FaSSIF (Fasted State Simulated Intestinal Fluid), pH 6.8 buffer, read-out: Solubility in FaSSIF
[2] = FeSSIF (Fed State Simulated Intestinal Fluid), pH 5.0 buffer, read-out: Solubility in FeSSIF

Compound `Cc1[nH]c(CCCO)c(-c2ccc(Oc3ccc(OC(F)(F)F)cc3)cc2)c(=O)c1Cl` [Example 8, 3-chloro-6-(3-hydroxypropyl)-2-methyl-5-[4-({4-[(trifluoromethyl)oxy]phenyl}oxy)phenyl]-4(1H)-pyridinone] has a solubility at 24 h [1] of 10 to 50 µg/mL (≈ 22 to 110 µM) and a solubility at 24 h [2] of 10 to 50 µg/mL (≈ 22 to 110 µM).

Compound `Cc1[nH]c(CO)c(Cl)c(=O)c1-c1ccc(Oc2cccc(C(F)(F)F)c2)cc1` [Example 4, 3-chloro-2-(hydroxymethyl)-6-methyl-5-(4-{[3-(trifluoromethyl)phenyl]oxy}phenyl)-4(1H)-pyridinone] has a solubility at 24 h [1] of 1 to 5 µg/mL (≈ 2.44 to 12.2 µM) and a solubility at 24 h [2] of 10 to 50 µg/mL (≈ 24.4 to 122 µM).

Work on `CON=Cc1[nH]c(C)c(Cl)c(=O)c1-c1ccc(Oc2ccc(OC(F)(F)F)cc2)cc1` (single isomer, unassigned) [Example 6, 5-Chloro-6-methyl-4-oxo-3-[4-({4-[(trifluoromethyl)oxy]phenyl}oxy)phenyl]-1,4-dihydro-2-pyridinecarbaldehyde-O-methyloxime] yielded a solubility at 24 h [1] of 5 to 10 µg/mL (≈ 11 to 22.1 µM) and a solubility at 24 h [2] of 10 to 50 µg/mL (≈ 22.1 to 110 µM).

Compound `Cc1[nH]c(CO)c(Cl)c(=O)c1-c1ccc(Oc2ccc(OC(F)(F)F)cc2)cc1` [Example 3, 3-chloro-2-(hydroxymethyl)-6-methyl-5-[4-({4-[(trifluoromethyl)oxy]phenyl}oxy)phenyl]-4(1H)-pyridinone] has a solubility at 24 h [1] of 5 to 10 µg/mL (≈ 11.7 to 23.5 µM) and a solubility at 24 h [2] of 10 to 50 µg/mL (≈ 23.5 to 117 µM).

For `Cc1[nH]c(CO)c(-c2ccc(Oc3ccc(OC(F)(F)F)cc3)cc2)c(=O)c1Cl` [Example 1, 3-Chloro-6-(hydroxymethyl)-2-methyl-5-[4-({4-[(trifluoromethyl)oxy]phenyl}oxy)phenyl]-4(1H)-pyridinone], the solubility at 24 h [1] was 1 to 5 µg/mL (≈ 2.35 to 11.7 µM) and the solubility at 24 h [2] was 5 to 10 µg/mL (≈ 11.7 to 23.5 µM).

Work on `Cc1[nH]c(/C=N/O)c(-c2ccc(Oc3ccc(OC(F)(F)F)cc3)cc2)c(=O)c1Cl` [Example 5, 5-Chloro-6-methyl-4-oxo-3-[4-({4-[(trifluoromethyl)oxy]phenyl}oxy)phenyl]-1,4-dihydro-2-pyridinecarbaldehyde oxime] yielded a solubility at 24 h [1] of 5 to 10 µg/mL (≈ 11.4 to 22.8 µM) and a solubility at 24 h [2] of 10 to 50 µg/mL (≈ 22.8 to 114 µM).

For `Cc1[nH]c(CO)c(-c2ccc(Oc3cccc(C(F)(F)F)c3)cc2)c(=O)c1Cl` [Example 2], the solubility at 24 h [1] was 1 to 5 µg/mL (≈ 2.44 to 12.2 µM) and the solubility at 24 h [2] was 1 to 5 µg/mL (≈ 2.44 to 12.2 µM).

`Cc1[nH]c(C=NO)c(Cl)c(=O)c1-c1ccc(Oc2ccc(OC(F)(F)F)cc2)cc1` (single isomer, unassigned) [Example 7, 3-chloro-6-methyl-4-oxo-5-[4-({4-[(trifluoromethyl)oxy]phenyl}oxy)phenyl]-1,4-dihydro-2-pyridinecarbaldehyde oxime] gave a solubility at 24 h [1] of 1 to 5 µg/mL (≈ 2.28 to 11.4 µM) and a solubility at 24 h [2] of 5 to 10 µg/mL (≈ 11.4 to 22.8 µM).
